{"source": "patent US11523995B2", "about": "“Compositions and methods for ablating niche cells in testis and other epithelial cells and methods relating thereto” (Duke University, priority 2017, dated 2022)", "data": [{"test_system": "Sertoli cells", "assay": "Inhibition of in vitro Sertoli cell ablation with BC by cell death pathway inhibitors", "assay_type": "cell-based, mouse", "conditions": "30 min inhibitor pre-treatment, 10 min BC, culture with inhibitor 4 days, neonatal testis", "method": "Fragments of the mouse testis were incubated with 0.02% BC for 10 min. After washing several times with PBS, tissues were placed atop 1.5% agarose blocks (214530; Difco), prepared and placed in 6 well tissue culture plates (353046; Falcon) with ˜500 μl of 10% FBS+DMEM (11995-065; Gibco) to reach halfway up the side of the block. After culture, tissues were washed in PBS and fixed for immunofluorescence. The dog testis tissues were incubated with 0.02% or 0.03% BC for 10 min and cultured with 10% KnockOut Serum Replacement (KSR) (Invitrogen; 10828-028)+DMEM (Yokonishi, T., et al. Methods in Molecular Biology 927: 479-488 (2013)). The culture incubator was supplied with 5% (vol/vol) carbon dioxide in air and maintained at 37° C. Q-VD (OMe)-OPh (A8165; ApexBio), Necrostatin-1, Spautin-1 (Sigma; SML0440), 3-Methyladenine (Cayman; CAS 5142-23-4), LY294002 (Cayman; CAS 154447-36-6), Bafilomycin A1 (Cayman; CAS88899-55-2) were used as cell death inhibitors. Next, we investigated the Sertoli cell death pathway caused by BC treatment. Testes from neonatal pups were pre-treated with 1% DMSO (as a control) or with cell death pathway inhibitors, pan-caspase inhibitor, 2,6-difluorophenoxymethylketone-based inhibitor (Q-VD-OPH), necrosis inhibitor (Necrostatin-1) and autophagy inhibitors, Spautin-1, LY294002, or Bafilomycin A1, for 30 min. Pre-treatments were followed by a 10 min BC treatment, washing, and culture in the presence of the inhibitor for 4 days (FIG. 3).", "values": [{"smiles": "COC(=O)C[C@H](NC(=O)[C@@H](NC(=O)c1ccc2ccccc2n1)C(C)C)C(=O)COc1c(F)cccc1F", "note": "[Q-VD-OPH]", "rescue of Sertoli cells after BC treatment": "did not rescue Sertoli cells"}, {"smiles": "Fc1ccc(CNc2ncnc3ccc(F)cc23)cc1", "note": "[Spautin-1]", "rescue of Sertoli cells after BC treatment": "partially rescued Sertoli cells"}, {"smiles": "Cn1cnc(N)c2ncnc1-2", "note": "[3MA, 3-Methyladenine]", "rescue of Sertoli cells after BC treatment": "partially rescued Sertoli cells"}, {"smiles": "CN1C(=O)C(Cc2c[nH]c3ccccc23)NC1=S", "note": "(centres unmarked) [Necrostatin-1]", "rescue of Sertoli cells after BC treatment": "did not rescue Sertoli cells"}, {"smiles": "CO/C1=C\\C(C)=C\\[C@@H](C)[C@@H](O)[C@@H](C)C/C(C)=C/C=C/[C@H](OC)[C@@H]([C@@H](C)[C@@H](O)[C@H](C)[C@@]2(O)C[C@@H](O)[C@H](C)[C@@H](C(C)C)O2)OC1=O", "note": "[Bafilomycin A1]", "rescue of Sertoli cells after BC treatment": "partially rescued Sertoli cells"}]}]}
